# According to patent US9365584B2, “Thieno [2,3-B] pyridinedione activators of AMPK and therapeutic uses thereof” (Poxel, priority 2009, dated 2016):
# Tested on: AMPK
# Experiment: AMPK enzyme activity assay (Delfia technology, AMARA peptide substrate)
# Assay type: biochemical
# Conditions: compound at 30 μM vs AMP at 200 μM
# Procedure, shortened: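 Value is the ratio of compound (30 μM) to AMP (200 μM) response, each as % of basal control. Phosphorylation of the AMARA peptide after AMPK addition was read by Delfia with an anti-phosphoserine antibody.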
row,Compound,Activity: Ratio between the % of control (basal activity) of compound of formula (1) at 30 μM and the % of control (basal activity) of AMP (natural substrate) at 200 μM
1,"Cc1cccc(C2(F)C(=O)Nc3sc(Cl)c(-c4ccc(C)c(C)c4)c3C2=O)c1 (stereo not drawn) [No 186, 2-chloro-3-(3,4-dimethylphenyl)-5-fluoro-5-(m-tolyl)-7H-thieno[2,3-b]pyridine-4,6-dione]",C (C≧75%)
2,"COc1ccccc1C1(F)C(=O)Nc2sc(Cl)c(-c3ccc(F)cc3O)c2C1=O (stereo not drawn) [No 99, 2-chloro-5-fluoro-3-(4-fluoro-2-hydroxy-phenyl)-5-(2-methoxyphenyl)-7H-thieno[2,3-b]pyridine-4,6-dione]",C (C≧75%)
3,"COc1ccc(-c2csc3c2C(=O)C(F)(c2ccc(F)cc2)C(=O)N3)cc1 (stereo not drawn) [No 199, 5-fluoro-5-(4-fluorophenyl)-3-(4-methoxyphenyl)-7H-thieno[2,3-b]pyridine-4,6-dione]",B (50%≦B<75%)
4,"COC1(c2ccccc2)C(=O)Nc2sc(Cl)c(-c3ccccc3)c2C1=O (stereo not drawn) [No 48, 2-chloro-5-methoxy-3,5-diphenyl-7H-thieno[2,3-b]pyridine-4,6-dione]",A (0%<A<50%)
5,"COc1ccccc1-c1c(Cl)sc2c1C(=O)C(F)(c1ccccc1)C(=O)N2 (stereo not drawn) [No 98, 2-chloro-5-fluoro-3-(2-methoxyphenyl)-5-phenyl-7H-thieno[2,3-b]pyridine-4,6-dione]",A (0%<A<50%)
6,"CC1(c2ccc(F)cc2)C(=O)Nc2sc(Cl)c(-c3ccc(F)cc3)c2C1=O (stereo not drawn) [No 49, 2-chloro-3,5-bis(4-fluorophenyl)-5-methyl-7H-thieno[2,3-b]pyridine-4,6-dione]",A (0%<A<50%)
7,"COc1cccc(-c2c(Cl)sc3c2C(=O)C(C)(c2ccc(F)cc2)C(=O)N3)c1 (stereo not drawn) [No 42, 2-chloro-5-(4-fluorophenyl)-3-(3-methoxyphenyl)-5-methyl-7H-thieno[2,3-b]pyridine-4,6-dione]",A (0%<A<50%)
8,"O=C1Nc2scc(-c3ccc(Br)cc3)c2C(=O)C1(F)c1ccccn1 (stereo not drawn) [No 188, 3-(4-bromophenyl)-5-fluoro-5-(2-pyridyl)-7H-thieno[2,3-b]pyridine-4,6-dione]",A (0%<A<50%)
9,"Cc1c(F)ccc(-c2c(Cl)sc3c2C(=O)C(F)(c2ccccc2)C(=O)N3)c1O (stereo not drawn) [No 185, 2-chloro-5-fluoro-3-(4-fluoro-2-hydroxy-3-methyl-phenyl)-5-phenyl-7H-thieno[2,3-b]pyridine-4,6-dione]",C (C≧75%)
10,"COc1ccc(-c2c(Cl)sc3c2C(=O)C(C)(c2ccc(C)cc2)C(=O)N3)cc1 (stereo not drawn) [No 96, 2-chloro-3-(4-methoxyphenyl)-5-methyl-5-(p-tolyl)-7H-thieno[2,3-b]pyridine-4,6-dione]",A (0%<A<50%)
11,"O=C1Nc2scc(-c3ccc(Br)cc3)c2C(=O)C1(F)c1ccncc1 (stereo not drawn) [No 124, 3-(4-bromophenyl)-5-fluoro-5-(4-pyridyl)-7H-thieno[2,3-b]pyridine-4,6-dione]",B (50%≦B<75%)
12,"O=C1Nc2sc(Cl)c(-c3ccc(O)cc3)c2C(=O)C1(F)c1ccccc1 (stereo not drawn) [No 72, 2-chloro-5-fluoro-3-(4-hydroxyphenyl)-5-phenyl-7H-thieno[2,3-b]pyridine-4,6-dione]",C (C≧75%)
13,"COc1ccccc1-c1c(F)sc2c1C(=O)C(F)(c1ccccc1)C(=O)N2 (stereo not drawn) [No 181, 2,5-difluoro-3-(2-methoxyphenyl)-5-phenyl-7H-thieno[2,3-b]pyridine-4,6-dione]",A (0%<A<50%)
14,"Cc1cccc(C2(C)C(=O)Nc3sc(Cl)c(-c4ccc(F)cc4)c3C2=O)c1 (stereo not drawn) [No 83, 2-chloro-3-(4-fluorophenyl)-5-methyl-5-(m-tolyl)-7H-thieno[2,3-b]pyridine-4,6-dione]",A (0%<A<50%)
15,"O=C1Nc2scc(-c3ccccc3)c2C(=O)C1(F)c1cccc(C(F)(F)F)c1 (stereo not drawn) [No 131, 5-fluoro-3-phenyl-5-[3-(trifluoromethyl)phenyl]-7H-thieno[2,3-b]pyridine-4,6-dione]",B (50%≦B<75%)
16,"O=C1Nc2scc(-c3ccccc3Br)c2C(=O)C1(F)c1ccccc1 (stereo not drawn) [No 125, 3-(2-bromophenyl)-5-fluoro-5-phenyl-7H-thieno[2,3-b]pyridine-4,6-dione]",A (0%<A<50%)
17,"Cc1ccc(C2(C)C(=O)Nc3sc(Cl)c(-c4ccccc4F)c3C2=O)cc1 (stereo not drawn) [No 75, 2-chloro-3-(2-fluorophenyl)-5-methyl-5-(p-tolyl)-7H-thieno[2,3-b]pyridine-4,6-dione]",A (0%<A<50%)
18,"2-chloro-5-(3-methoxyphenyl)-5-methyl-3-(p-tolyl)-7H-thieno[2,3-b]pyridine-4,6-dione [No 209]",A (0%<A<50%)
19,"O=C1Nc2sc(F)c(-c3ccccc3)c2C(=O)C1(F)c1ccc(C(F)(F)F)cc1 (stereo not drawn) [No 134, 2,5-difluoro-3-phenyl-5-[4-(trifluoromethyl)phenyl]-7H-thieno[2,3-b]pyridine-4,6-dione]",A (0%<A<50%)
20,"2,5-difluoro-3-(2-naphthyl)-5-phenyl-7H-thieno[2,3-b]pyridine-4,6-dione [No 162]",C (C≧75%)
21,"O=C1Nc2sc(Cl)c(-c3ccccc3F)c2C(=O)C1(F)c1ccccc1 (stereo not drawn) [No 73, 2-chloro-5-fluoro-3-(2-fluorophenyl)-5-phenyl-7H-thieno[2,3-b]pyridine-4,6-dione]",C (C≧75%)
22,"COc1cccc(-c2c(Cl)sc3c2C(=O)C(C)(c2ccccc2)C(=O)N3)c1 (stereo not drawn) [No 40, 2-chloro-3-(3-methoxyphenyl)-5-methyl-5-phenyl-7H-thieno[2,3-b]pyridine-4,6-dione]",A (0%<A<50%)
23,"Cc1cccc(-c2c(Cl)sc3c2C(=O)C(C)(c2cccc(C)c2)C(=O)N3)c1 (stereo not drawn) [No 171, 2-chloro-5-methyl-3,5-bis(m-tolyl)-7H-thieno[2,3-b]pyridine-4,6-dione]",A (0%<A<50%)

# Same assay, conditions: compound at 30 μM vs AMP at 200 μM; listed as 2
row,Compound,Activity: Ratio between the % of control (basal activity) of compound of formula (1) at 30 μM and the % of control (basal activity) of AMP (natural substrate) at 200 μM
1,"COC1(c2ccccc2)C(=O)Nc2sc(Cl)c(-c3ccccc3)c2C1=O (stereo not drawn) [No 48, 2-chloro-5-methoxy-3,5-diphenyl-7H-thieno[2,3-b]pyridine-4,6-dione]",B (50%≦B<75%)
